Publication PMC12477080, “Polychlorinated biphenyls (PCBs) interact with drug metabolism in vivo” (Archives of Toxicology, 2025)

Tests used:
CYP1A2 mRNA = CYP1A2 mRNA expression in primary human hepatocytes (qRT-PCR); type: cell-based; conditions: three donors, 48 h exposure, PCB118 0.1–0.5 µM, omeprazole positive control
CYP2D6 = assay: CYP phenotyping cocktail clinical study: metoprolol/α-OH-metoprolol metabolic ratio and its association with PCB plasma levels; conditions: linear regression of MR AUC0–8 h α-OH-metoprolol/metoprolol (CYP2D6 activity) on PCB plasma concentration
Procedure: (§1) The participants were ascertained not to have any acute disease by medical history, physical examination, laboratory screening, including hematological and biochemical blood tests, and a 12-lead electrocardiogram. […] The demographic data of the subjects are summarized in Table 1 in the supplemental data. At the enrollment visit, 2 blood samples (9 ml each) were collected into ethylenediaminetetraacetic acid (EDTA)-containing tubes taken from each subject for analyzing the plasma concentrations of PCB congeners and for pharmacogenetic analysis.
(§2) Participants stayed fasted from the evening before until 3 h after drug administration. After that, a meal was provided. Water and juice were permitted but alcoholic and caffeinated beverages were not allowed from the evening before drug administration until the last blood sample was taken on the next day. Venous blood samples (9 ml each) were collected through an intravenous catheter immediately before and 0.25, 0.5, 0.75, 1, 1.5, 2, 2.5, 3, 4, 5, 6, 7, 8, and 24 h after drug administration. Blood was drawn into EDTA-coated tubes, centrifuged at 1500 g for 10 min at 4 °C, and plasma samples were subsequently stored at − 80 °C until further analysis. After completely voiding the bladder immediately before drug administration, the participants collected urine from 0 to 24 h after drug administration. After weighing the collected urine, a 10 ml aliquot of each fraction was taken.
(§3) Commercially sourced standards and internal standards were used for quantification (see Supplemental Materials). In brief, 20 µl of the plasma samples were protein-precipitated with 80 µl methanol containing all internal standards or were treated for 16 h at 37 °C with 2 µl β-glucuronidase (1,000,000 Units) for deconjugation before protein precipitation with 78 µl methanol containing internal standards. Samples were centrifuged for 20 min, at 4 °C and 17,000 × g, and 40 µl of the supernatants were diluted with 40 µl LC–MS grade water, centrifuged again for 5 min at 4 °C and 17,000 × g and 50 µl supernatant were transferred to LC–MS vials 5 µl of the samples were injected into the LC–MS system.
(§4) An Agilent 1290 Infinity II UHPLC coupled with a SCIEX QTRAP6500 + triple quadrupole mass spectrometer was used. Chromatographic separation was achieved on an Agilent Poroshell 120 EC-C18 (1.9 µm, 2.1 × 50 mm) column with A: 0.1% formic acid in water and B: methanol with a flow rate of 0.7 ml/min and a total run time of 8.5 min. Analytes were eluted using a gradient program. The following gradient steps represent gradual changes in % B over time: 5% B from 0 to 0.2 min, 30% B at 2 min, 34% B at 4.8 min, 95% B at 6.5 min, 95% B at 7.5 min and re-equilibrating to 5% B at 7.7 min and 5%B till 8.5 min. A representative chromatogram is shown in supplemental Fig. 2. The scheduled MRM mode was applied for analyte detection in both positive and negative ESI modes (Supplementary Table 4). Calibration curves were constructed with linear regression using weighted (1/x^2) models (detailed information in supplemental methods).
(§5) Partial areas under the plasma concentration–time curves from 0 to 3 h (AUC0–3 h), from 0 to 4 h (AUC0–4 h), and from 0 to 8 h (AUC0–8 h) were calculated based on measured concentrations by the linear trapezoidal rule without extrapolation. […] Metabolic ratios (MR) were calculated by dividing the partial AUC of the metabolite by the respective partial AUC of the parent drug. The MRs were used as biomarkers for the individual CYP activities of the study subjects.

CYP2B6 = assay: CYP phenotyping cocktail clinical study: efavirenz/8-OH-efavirenz metabolic ratio and its association with PCB plasma levels; conditions: linear regression of MR AUC0–8 h 8-OH-efavirenz/efavirenz (CYP2B6 activity) on PCB plasma concentration
Procedure: as §1, §2, §3, §4, §5

Human CYP1A2 = molecular target: T1, Human CYP1A2 (Homo sapiens, UniProt P05177); assay: In vitro metabolism by CYP1A2 Supersomes; type: in vitro ADME; conditions: 10 µM substrate, 50 pmol/mL CYP1A2 supersomes, 2 mM NADPH; 1 h (phenacetin), 1 and 4 h (PCB118)
T1 construct: purchased; host or cells: insect cells
T1 sequence (P05177 2-516 limits assumed): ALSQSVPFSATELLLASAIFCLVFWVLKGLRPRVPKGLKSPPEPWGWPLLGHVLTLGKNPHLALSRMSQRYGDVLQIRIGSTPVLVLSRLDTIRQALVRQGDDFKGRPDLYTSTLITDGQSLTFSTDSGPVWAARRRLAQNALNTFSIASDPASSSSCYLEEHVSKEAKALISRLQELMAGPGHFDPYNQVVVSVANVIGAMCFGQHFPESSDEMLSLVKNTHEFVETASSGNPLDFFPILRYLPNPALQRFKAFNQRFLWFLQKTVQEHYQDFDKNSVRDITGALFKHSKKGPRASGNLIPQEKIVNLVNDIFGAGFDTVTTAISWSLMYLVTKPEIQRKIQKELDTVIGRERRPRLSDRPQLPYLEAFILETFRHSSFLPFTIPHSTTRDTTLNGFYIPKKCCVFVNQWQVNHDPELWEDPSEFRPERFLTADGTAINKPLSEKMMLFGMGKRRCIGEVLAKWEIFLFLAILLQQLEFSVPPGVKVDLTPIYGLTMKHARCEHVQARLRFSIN
Procedure: To investigate the metabolism of PCB118 by CYP1A2, incubation assays were conducted using CYP1A2 supersomes in a total reaction volume of 100 µL. Reaction mixtures were assembled on ice. […] Reactions were initiated by the addition of CYP1A2 supersomes.
To assess potential non-enzymatic transformations and confirm NADPH-dependent metabolism, control incubations were performed under the following conditions: buffer and enzyme only (no-substrate control), substrate, buffer, and NADPH without enzyme (no-enzyme control), and substrate, buffer, and enzyme without NADPH (no-NADPH control). Each experimental condition was conducted in triplicate, while control conditions were performed as single replicates.
The resulting supernatants (100 µL) were transferred to LC–MS vials, yielding samples with 80% methanol content for analysis. For the detection of hydroxylated PCB metabolites, reactions were stopped by adding 500 µL methanol, followed by the addition of 50 µL of an internal standard mix (10 ng/mL). Samples were vortexed for 1 min and centrifuged at 4,500 rpm for 10 min. The resulting supernatants were transferred to glass LC vials and evaporated under a nitrogen stream at 45 °C until approximately 50 µL remained. Samples were then reconstituted in 100 µL of 0.1 M ammonium acetate buffer (pH 5.3) before transfer to inserts for LC–MS analysis.
To determine whether PCB118 serves as a substrate for CYP1A2 and could act as a competitive inhibitor for other CYP1A2 substrates, we conducted in vitro metabolism experiments. […] In parallel, CYP1A2-mediated metabolism of PCB118 was assessed. […] The identity of 4-OH-CB107 was verified by comparison with an authentic reference standard, showing identical retention time and spectral characteristics (supplemental Fig. 1).

Structure (SMILES): Clc1ccc(-c2cc(Cl)c(Cl)cc2Cl)cc1Cl [PCB118]
- effect on CYP1A2 mRNA expression (CYP1A2 mRNA): did not significantly alter CYP1A2 mRNA levels
- t value (CYP2D6): 2,169
- β (standardized regression coefficient) (CYP2D6): 0,455
- t value (CYP2B6): 1,020
- β (standardized regression coefficient) (CYP2B6): 0,255
- t value (CYP2B6; PM excl): 0,839
- β (standardized regression coefficient) (CYP2B6; PM excl): 0,227
- CYP1A2-mediated metabolism of the substrate (Human CYP1A2): catalyzed the hydroxylation of PCB118, leading to the formation of 4-OH-CB107
